The source of these data is patent US20170065593A1, “Combination” (Novartis AG, priority 2009, published 2017).

Like-named read-outs stand apart in the source and are kept apart here. Bounds are passed on as bounds.

Assay [1] has as its system panel of 29 human lung tumor cell lines. Kind of assay: Cell growth inhibition, summary over the panel. Type of assay: cell-based. The settings on record: out of 29 lines; single agent. The method, then:
(§1) Human tumor cell lines from lung cancer, A427, A549, Calu1, Calu3, Calu6, COR-L23, HOP62, MV522, NCI-H1155, NCI-H1299, NCI-H1355, NCI-H1395, NCI-H157, NCI-H1573, NCI-H1666, NCI-1755, NCI-H1792, NCI-2009, NCI-H2030, NCI-H2122, NCI-H2291, NCI-H23, NCI-H2347, NCI-H358, NCI-H441, NCI-H460, NCI-H650, NCI-H727, SW1573 and SW900 were cultured in RPMI 1640 medium containing 10% fetal bovine serum (FBS). Cell line mutation data was collated for the status for the RAS and RAF genes. The data source is the cancer cell line mutation screening data published as part of the Catalog of Somatic Mutations in Cancer database (COSMIC) (Bamford S. et al. Br. J. Cancer. 2004. 91:355-58) and/or in house DNA sequencing.
Cells were seeded in a 96-well tissue culture plate (NUNC 136102) of RPMI medium containing 10% FBS at 500-2,000 cells per well. […] ATP levels were determined by adding Cell Titer Glo® (Promega) according to the manufacturer's protocol. Briefly, Cell Titer Glo® was added to each plate, incubated for 20 minutes then luminescent signal was read on the SpectraMax L plate reader with a 0.5 sec integration time. […]
Inhibition of cell growth was estimated after treatment with compound or combination of compounds for three days and comparing the signal to cells treated with vehicle (DMSO). Cell growth was calculated relative to vehicle (DMSO) treated control wells. […]

A further assay relates to NCI-H2347. In words: Cell growth inhibition assay (Cell Titer Glo, 3 days). In kind it is cell-based, Human. The settings on record: NCI-H2347 (RAS_H, N_Q61R), single agent, mean ± std. The method, then: as §1
(§2) Cells were seeded in a 96-well tissue culture plate (NUNC 136102) of RPMI medium containing 10% FBS at 500-2,000 cells per well. Approximately 24 hours after plating, cells were exposed to ten, two-fold or three-fold serial dilutions of either Compound A or B or the combination of the two agents at a 10:1 molar ratio (Compounds A and B respectively). The final dosing concentration range for Compound A was 2-1000 nM and was 0.2-100 nM for Compound B. Cells were incubated in the presence of compounds for 3 days. ATP levels were determined by adding Cell Titer Glo® (Promega) according to the manufacturer's protocol. Briefly, Cell Titer Glo® was added to each plate, incubated for 20 minutes then luminescent signal was read on the SpectraMax L plate reader with a 0.5 sec integration time. All assays were run at least in duplicate.
(§3) Inhibition of cell growth was estimated after treatment with compound or combination of compounds for three days and comparing the signal to cells treated with vehicle (DMSO). Cell growth was calculated relative to vehicle (DMSO) treated control wells. Concentration of compound that inhibits 50% of control cell growth (IC50) was back-interpolated when y=50% of DMSO treated control wells using nonlinear regression with the equation: […]

A further assay concerns Calu1. The assay is described as above. The settings on record: Calu1 (KRAS_G12C), single agent, mean ± std. In kind it is cell-based, Human. The method, then: as §1, §2, §3
The subject of the next assay is SW1573. The description is as above. In kind it is cell-based, Human. The settings on record: SW1573 (KRAS_G12C), single agent, mean ± std. The protocol: as §1, §2, §3
The subject of a further assay is MV522. Described as above. In kind it is cell-based, Human. The settings on record: MV522 (BRAF_V600E), single agent, mean ± std. The protocol: as §1, §2, §3
The test system of the next assay is NCI-H157. The assay is described as above. Type of assay: cell-based, Human. The settings on record: NCI-H157 (KRAS_G12R), single agent, mean ± std. The protocol:
as §1, §2, §3

A further assay concerns NCI-H1299. Described as above. In kind it is cell-based, Human. The settings on record: NCI-H1299 (NRAS_Q61K), single agent, mean ± std. The method, then: as §1, §2, §3
The test system of a further assay is NCI-H441. The assay is described as above. In kind it is cell-based, Human. The settings on record: NCI-H441 (KRAS_G12V), single agent, mean ± std. The method, then: as §1, §2, §3
The test system of another assay is A549. The description is as above. In kind it is cell-based, Human. The settings on record: A549 (KRAS_G12S), single agent, mean ± std. The protocol: as §1, §2, §3
Another assay concerns NCI-H1155. Described as above. Type of assay: cell-based, Human. The settings on record: NCI-H1155 (KRAS_Q61H), single agent, mean ± std. The protocol: as §1, §2, §3
Another assay concerns NCI-H1395. The assay is described as above. Type of assay: cell-based, Human. The settings on record: NCI-H1395 (BRAF_G469A), single agent, mean ± std. The protocol:
as §1, §2, §3

Another assay relates to A427. The assay is described as above. In kind it is cell-based, Human. The settings on record: A427 (KRAS_G12D), single agent, mean ± std. The method, then: as §1, §2, §3
The test system of the next assay is NCI-H650. The description is as above. In kind it is cell-based, Human. The settings on record: NCI-H650 (KRAS_Q61L), single agent, mean ± std. The protocol: as §1, §2, §3
For another assay, the system named is NCI-H23. Described as above. In kind it is cell-based, Human. The settings on record: NCI-H23 (KRAS_G12C), single agent, mean ± std. The protocol:
as §1, §2, §3

The subject of a further assay is Calu6. Described as above. In kind it is cell-based, Human. The settings on record: Calu6 (KRAS_Q61K), single agent, mean ± std. The method, then: as §1, §2, §3
The next assay has as its system NCI-H2122. The assay is described as above. The settings on record: NCI-H2122 (KRAS_G12C), single agent, mean ± std. Type of assay: cell-based, Human. The protocol: as §1, §2, §3
Another assay deals with CORL23. Described as above. Type of assay: cell-based, Human. The settings on record: CORL23 (KRAS_G12V), single agent, mean ± std. The protocol: as §1, §2, §3
The test system of the next assay is NCI-H727. The assay is described as above. In kind it is cell-based, Human. The settings on record: NCI-H727 (KRAS_G12V), single agent, mean ± std. The method, then:
as §1, §2, §3

The next assay relates to NCI-H1792. The description is as above. Type of assay: cell-based, Human. The settings on record: NCI-H1792 (KRAS_G12C), single agent, mean ± std. The method, then: as §1, §2, §3
In a further assay the test system is NCI-H358. The description is as above. In kind it is cell-based, Human. The settings on record: NCI-H358 (KRAS_G12C), single agent, mean ± std. The method, then:
as §1, §2, §3

The mark [2] stands for this setting: Homo sapiens, 72 h, read-out: IC50 Single Agent Compound B.
Where [3] appears, read: read-out: IC50 Single Agent Compound A.

Turning to `CO[C@H]1C[C@@H]2CC[C@@H](C)[C@@](O)(O2)C(=O)C(=O)N2CCCC[C@H]2C(=O)O[C@H]([C@H](C)C[C@@H]2CC[C@@H](OCCO)[C@H](OC)C2)CC(=O)[C@H](C)/C=C(\C)[C@@H](O)[C@@H](OC)C(=O)[C@H](C)C[C@H](C)/C=C/C=C/C=C/1C` [Compound B, everolimus], in [1], the “number of lines sensitive (IC50s<100 nM)” value is recorded as 2. For the same molecule, the IC50 with NCI-H2347 (setting [2]) is greater than 100 nM; with Calu1 (Homo sapiens, Calu-1, 72 h, read-out: IC50 Single Agent Compound B), greater than 100 nM; in the assay on SW1573 (setting [2]), greater than 100 nM; in the assay on MV522 (setting [2]), greater than 100 nM; in the assay with NCI-H157 (setting [2]), greater than 100 nM; in the assay on NCI-H1299 (setting [2]) it was greater than 100 nM. Moreover, the IC50 in the assay on NCI-H441 (setting [2]) was greater than 100 nM; in the assay with A549 (setting [2]) it was 3 ± 3 nM; in the assay on NCI-H1155 (setting [2]) it was greater than 100 nM; in the assay with NCI-H1395 (setting [2]), greater than 100 nM; in the assay on A427 (Homo sapiens, A-427, 72 h, read-out: IC50 Single Agent Compound B), greater than 100 nM; in the assay with NCI-H650 (setting [2]), greater than 100 nM. Moreover, the IC50 was greater than 100 nM in the assay with NCI-H23 (setting [2]); greater than 100 nM with Calu6 (Homo sapiens, Calu-6, 72 h, read-out: IC50 Single Agent Compound B); 97 ± 37 nM in the assay on NCI-H2122 (setting [2]); greater than 100 nM in the assay with CORL23 (Homo sapiens, COR-L23, 72 h, read-out: IC50 Single Agent Compound B); greater than 100 nM in the assay on NCI-H727 (setting [2]); greater than 100 nM in the assay with NCI-H1792 (setting [2]). Also, the IC50 in the assay with NCI-H358 (setting [2]) was greater than 100 nM.
As to “N-{3-[3-cyclopropyl-5-(2-fluoro-4-iodo-phenylamino)6,8-dimethyl;-2,4,7-trioxo-3,4,6,7-tetrahydro-2H-pyrido[4,3-d]pyrimidin-1-yl]phenyl}acetamide [Compound A]”, the “number of lines sensitive (IC50s<100 nM)” value in assay [1] is listed as 17. Also, the IC50 in the assay on NCI-H2347 (setting [3]) is 7 ± 2 nM; in the assay on Calu1 (setting [3]) it was greater than 1000 nM; in the assay with SW1573 (setting [3]), greater than 1000 nM; in the assay on MV522 (setting [3]) it was 1 nM; with NCI-H157 (setting [3]), greater than 1000 nM; in the assay on NCI-H1299 (setting [3]) it was 277 ± 92 nM. Further, the IC50 in the assay with NCI-H441 (setting [3]) was greater than 1000 nM; in the assay on A549 (setting [3]), 32 ± 9 nM; in the assay on NCI-H1155 (setting [3]), greater than 1000 nM; in the assay on NCI-H1395 (setting [3]), greater than 1000 nM; in the assay on A427 (setting [3]), 95 ± 68 nM; with NCI-H650 (setting [3]), 4 ± 2 nM. In addition, the IC50 in the assay on NCI-H23 (setting [3]) worked out at 31 ± 2 nM; in the assay on Calu6 (setting [3]), 5 nM; with NCI-H2122 (setting [3]), 5 ± 1 nM; in the assay on CORL23 (setting [3]) it was 989 ± 86 nM; in the assay on NCI-H727 (setting [3]), 3 ± 1 nM; in the assay with NCI-H1792 (setting [3]), 59 ± 23 nM. Further, the IC50 in the assay with NCI-H358 (setting [3]) was 31 ± 10 nM.

As usually defined, the IC50 is the concentration at which inhibition is half-maximal.
